Source: paper PMC10525445, “Antitrypanosomal Activity of 1,2,3-Triazole-Based Hybrids Evaluated Using In Vitro Preclinical Translational Models” (Biology, 2023)
“Also recorded” adds a separate entry of the source. Read-outs that look alike come from different tables or passages of the source.

Tests used:
Assay type in all cases: cell-based, Trypanosoma cruzi
[1] = test system: T. cruzi (Dm28c-Luc)-infected VERO cells; assay: Short-term washout assay (3 days treatment, 3 days without compound)
Experimental: A washout assay was performed to evaluate the capacity of the promising candidates to eliminate all parasites. Thus, VERO cells, seeded in 96-well plates at a density of 1.5 × 10^4 cells/well, were infected with T. cruzi (Dm28c-Luc) at a 10:1 parasite–host cell ratio (24 h). Two treatment schedules were performed: 3 days with 30, 50, and 100 µM concentrations and 10 days with 30 and 60 times the IC50 concentrations. After treatment, the cultures were washed with PBS and kept for the same period in RPMI 1640 medium supplemented with 10% FBS without compound pressure. The culture medium was changed every 3 or 4 days during the time course, and the supernatant was harvested for luminescence reading after luciferin (300 µg/mL) addition. At the endpoint, the monolayers were also evaluated for parasite load. The luminescent signal was read using a Glomax reader. Bz (100 µM) and DMSO (≤1%) were used as positive and negative controls, respectively.

[2] = molecular target: trypomastigote forms of T. cruzi (Dm28c-Luc); assay: Trypanocidal activity against trypomastigotes (luciferase luminescence, 24 h); details: for Trypomastigotes SI: SI = CC50 of VERO cells/IC50 of trypomastigotes; for increase of activity compared with 1g (times): trypomastigotes
Experimental: (§1) A drug screen was carried out with Trypanosoma cruzi clone Dm28c genetically modified to express luciferase (Dm28c-luc), kindly provided by Dr. Cristina Henriques. The genetically modified T. cruzi clone Dm28c (Dm28c-Luc) has the firefly luciferase gene integrated into the genome, stably expressing the luminescent enzyme. The bioluminescent signal, proportional to the number of parasites, is produced by adding a D-luciferin substrate. Trypomastigotes were harvested from supernatants of VERO cell cultures, infected at a ratio of 10:1 parasite/host cells, 4 days post-infection (4 dpi). Parasites were used for phenotypic drug screening procedures. Luminescent parasites are a reliable and sensitive tool that allows precise quantification of parasite load. The use of genetically modified organisms was approved under license CQB 105/99.
All triazole analogs were analyzed for their biological activity against trypomastigote and intracellular amastigote forms of T. cruzi (Dm28c-Luc). Trypomastigotes (1.0 × 10^6 parasites/well) were incubated for 24 h at 37 °C with triazole derivatives and Bz at concentrations ranging from 0.04 to 100 µM. Luciferin (300 µg/mL), a luciferase substrate, was added to parasite suspensions to evaluate trypomastigotes viability. The luminescent signal was measured using a Glomax microplate reader. A maximal DMSO concentration (0.1%) was used as the negative control. The inhibitory concentration 50 (IC50) and 90 (IC90) against T. cruzi, which reduces the number of parasites by 50% and 90%, respectively, was calculated using linear regression. The selectivity index (SI), a ratio that measures the window between toxicity in mammalian cells and anti-T. cruzi activity (SI = CC50/IC50), was also determined.

[3] = test system: T. cruzi Dm28c-Luc in 3D cardiac spheroids; assay: Drug efficacy in T. cruzi-infected 3D cardiac spheroids; details: 72 h, 15 to 30 times the IC50, 1f maximum 50 µM
Experimental: Primary heart muscle cell cultures were obtained from fetuses of female Swiss Webster mice, as previously described. After heart removal and ventricle fragmentation, tissue fragments were dissociated in a trypsin and collagenase type II (Worthington Biochemical Corporation, Lakewood, USA) dissociation solution. For two-dimensional (2D) cultures, the isolated cardiac cells were seeded at a density of 5 × 10^4 cells/well in gelatin (0.1%)-coated 96-well white culture plates. Three-dimensional (3D) cardiac spheroids were obtained after seeding isolated heart muscle cells at a density of 2.5 × 10^4 cells/well in an agarose (1%)-coated 96-well U-bottom plate, as described in [35]. Heart muscle cells cultures were cultivated in Dulbecco’s modified Eagle medium (DMEM) supplemented with 7% FBS, 2.5 mM CaCl2, 2% embryo extract, and 1 mM L-glutamin and maintained at 37 °C in a humidified atmosphere of 5% CO2. All procedures with animals were approved by the Animal Care and Use Committee at the Oswaldo Cruz Institute (license L-017/2022).
A three-dimensional cardiac model was applied as a cell culture platform to test the efficacy of promising candidates. […] Microtissues were also incubated with DMSO (0.1%) and Bz (100 µM) as negative and positive controls, respectively. After luciferin addition (300 µg/mL), the luminescence was measured, and the data were expressed as arbitrary luminescence units (ALU).

[4] = test system: intracellular amastigote of T. cruzi Dm28c-Luc; assay: Drug combination assay with Bz (isobologram); details: for xΣFICI (average of the sums of fractional inhibitory concentration index): combination with Bz, six ratios, additive xΣFICI > 0.5–1; for interaction with Bz: isobologram, intracellular amastigote
Experimental: The combination of promising candidates and Bz was performed using an isobologram method. Initial concentrations were determined by ensuring that IC50 concentrations of monotherapy compounds remained close to half in serial dilutions (1:3–6 concentrations). Solutions at the initial concentration of each compound were prepared and then mixed in proportions of 5:0, 4:1, 3:2, 2:3, 1:4, and 0:5 (v/v) of promising compounds and Bz, respectively. The anti-T. cruzi activity for the serial dilutions (1:3) of the ratios was then analyzed, as previously described. The IC50 values for each combination were used to determine the fractional inhibitory concentration index (FICI); thus, FICI(A) = IC50(A) in combination/IC50(A) alone and FICI(B) = IC50(B) in combination/IC50(B) alone. In addition, the sum of the FICIs for each proportion (∑FICI = FICI(A) + FICI(B)) and the average of the sums for the FICIs (xΣFICI) were calculated. The FICI values were plotted on an isobologram graph. The xΣFICI was applied as a classification criterion for interactions: as synergistic xΣFICI ≤ 0.5, additive xΣFICI > 0.5–1, without interaction xΣFICI > 1–4, and antagonistic for xΣFICI > 4.

[5] = test system: intracellular amastigote forms of T. cruzi (Dm28c-Luc); assay: Activity against intracellular amastigotes in infected VERO cells (72 h); details: for Intracellular Amastigotes SI: SI = CC50 of VERO cells/IC50 of intracellular amastigotes; for IC50 / IC90: infected VERO cells, 72 h, mean ± SD; for IC50: read-out: Trypanocidal Activity Intracellular Amastigotes IC50; for IC90: read-out: Trypanocidal Activity Intracellular Amastigotes IC90
Experimental: as §1
Activity against intracellular amastigotes was determined in cultures of VERO cells infected by T. cruzi (24 h), as previously described. Briefly, infected cultures were treated for 72 h at 37 °C with different concentrations of triazole derivatives (0.04–100 µM). Then, the culture supernatant was removed, and the viability of the intracellular parasites was evaluated after adding luciferin (300 µg/mL) to the cell monolayer followed by reading using the microplate reader. Anti-T. cruzi activity (IC50 and IC90) and SI values were determined. All experimental assays were performed at least 3 times in duplicate.

[6] = Trypanosoma cruzi, Dm28c-Luc, 24 h, mean ± SD
[7] = Trypanosoma cruzi, Dm28c-Luc, 24 h, mean ± SD, read-out: Trypanocidal Activity Trypomastigotes IC50
[8] = Trypanosoma cruzi, Dm28c-Luc, 24 h, read-out: pIC50 against trypomastigotes (converted)

Molecule: 4-Phenyl-1-(m-tolyl)-1H-1,2,3-triazole [Triazole 1f]
- effect on parasite load ([1]; 30 µM): did not significantly reduce the parasite load
- fold reduction in parasite load compared to untreated cultures ([1]; 50 µM): ~12 fold
- parasite resurgence ([1]; 50 µM): did not prevent parasite resurgence
- pIC50 against trypomastigotes ([2]; Dm28c-Luc, 24 h): 5.91
- IC90 ([2]; Dm28c-Luc, 24 h, mean ± SD): 3.68 ± 0.6 µM
- IC50 ([2]; Dm28c-Luc, 24 h, mean ± SD, read-out: Trypanocidal Activity Trypomastigotes IC50): 1.23 ± 0.24 µM
- Trypomastigotes SI [2]: 70.5
- increase of activity compared with 1g (times) [2]: 1.8 times
- parasite load in 3D cardiac microtissue (luminescence) [3]: significantly inhibited the viability of the parasites; also recorded: significantly reduce the parasite load
- xΣFICI (average of the sums of fractional inhibitory concentration index) [4]: 0.88
- interaction with Bz [4]: additive effect
- Intracellular Amastigotes SI [5]: 24.8
- IC50 [5]: 3.5 ± 0.39 µM
- IC90 [5]: 30.4 ± 0.4 µM

Molecule: COc1ccc(-n2cc(-c3ccccc3)nn2)cc1 [Triazole 1d, 1-(4-Methoxyphenyl)-4-phenyl-1H-1,2,3-triazole]
- fold reduction in parasite load compared to untreated cultures ([1]; 100 µM): approximately 10 fold
- parasite resurgence ([1]; 100 µM): did not prevent parasite resurgence
- Trypomastigotes SI [2]: >2380
- IC90 [2, 6]: 2.9 ± 0.16 µM
- IC50 [2, 7]: 0.21 ± 0.03 µM
- IC50 [2, 8]: 0.214 µM
- increase of activity compared with 1g (times) [2]: 11 times
- parasite load in 3D cardiac microtissue (luminescence) [3]: significantly inhibited the viability of the parasites; also recorded: significantly reduce the parasite load
- xΣFICI (average of the sums of fractional inhibitory concentration index) [4]: 0.93
- interaction with Bz [4]: additive effect
- Intracellular Amastigotes SI [5]: >152
- IC50 ([5]; Trypanosoma cruzi): 3.27 ± 0.9 µM
- IC90 ([5]; Trypanosoma cruzi): > 100 µM

Molecule: c1ccc(-c2cn(-c3ccccc3)nn2)cc1 [Triazole 1g, 1-(4-Diphenyl)-1H-1,2,3-triazole]
- effect on parasite load / infection progression ([1]; 100 µM): did not significantly reduce the parasite load
- Trypomastigotes SI [2]: >219
- IC90 [2, 6]: > 100 µM
- IC50 [2, 7]: 2.28 ± 0.34 µM
- IC50 [2, 8]: 2.29 µM
- parasite load in 3D cardiac microtissue (luminescence) [3]: did not effectively decrease the total number of viable intracellular parasites
- xΣFICI (average of the sums of fractional inhibitory concentration index) [4]: 0.90
- interaction with Bz [4]: additive effect
- Intracellular Amastigotes SI [5]: >80.6
- IC50 ([5]; Trypanosoma cruzi): 6.2 ± 1.06 µM
- IC90 ([5]; Trypanosoma cruzi): > 100 µM
